Experimental data from ChEMBL document CHEMBL1152596, “Inhibition of serotonin and norepinephrine reuptake and inhibition of phosphodiesterase by multi-target inhibitors as potential agents for depression” (Bioorg Med Chem, 2009).

How the values were obtained:
[1] = target: T1, Sodium-dependent serotonin transporter (Homo sapiens, UniProt P31645); test: biochemical
Description: Displacement of [125I]RTI-55 from human recombinant SERT expressed in HEK293 cells

[2] = target: T2, Sodium-dependent noradrenaline transporter (Homo sapiens, UniProt P23975); test: biochemical
Description: Displacement of [125I]RTI-55 from human recombinant NET expressed in HEK293 cells by scintillation counting

[3] = target: T3, Sodium-dependent dopamine transporter (Homo sapiens, UniProt Q01959); test: biochemical
Description: Displacement of [125I]RTI-55 from human recombinant DAT expressed in HEK293 cells

[4] = target: T2, Sodium-dependent noradrenaline transporter
Description: Inhibition of [3H]NE reuptake at human NET expressed in HEK cells

[5] = target: 3',5'-cyclic-AMP phosphodiesterase 4D (Homo sapiens, UniProt Q08499)
Description: Inhibition of PDE4D2 assessed as cAMP hydrolysis

[6] = target: T3, Sodium-dependent dopamine transporter
Description: Inhibition of [3H]DA reuptake at human DAT expressed in HEK293 cells

[7] = target: T1, Sodium-dependent serotonin transporter
Description: Inhibition of [3H]5HT reuptake at human SERT expressed in HEK293 cells

T2 sequence (P23975 whole entry): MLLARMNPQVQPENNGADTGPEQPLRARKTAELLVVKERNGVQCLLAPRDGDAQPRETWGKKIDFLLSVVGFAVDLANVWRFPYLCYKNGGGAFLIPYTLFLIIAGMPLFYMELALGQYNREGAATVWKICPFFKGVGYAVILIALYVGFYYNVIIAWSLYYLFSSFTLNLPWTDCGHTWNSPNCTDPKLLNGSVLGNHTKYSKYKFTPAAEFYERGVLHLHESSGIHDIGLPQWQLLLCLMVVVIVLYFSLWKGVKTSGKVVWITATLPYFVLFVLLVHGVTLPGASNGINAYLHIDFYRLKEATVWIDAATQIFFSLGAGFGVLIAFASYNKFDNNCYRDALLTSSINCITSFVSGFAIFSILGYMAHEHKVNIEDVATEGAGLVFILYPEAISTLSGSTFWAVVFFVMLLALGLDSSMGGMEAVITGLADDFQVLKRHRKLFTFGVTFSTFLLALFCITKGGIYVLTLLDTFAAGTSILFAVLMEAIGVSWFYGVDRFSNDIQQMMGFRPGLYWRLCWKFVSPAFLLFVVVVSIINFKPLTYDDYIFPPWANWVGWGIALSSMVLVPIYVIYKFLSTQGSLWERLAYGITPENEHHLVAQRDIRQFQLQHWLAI
T1 sequence (P31645 whole entry): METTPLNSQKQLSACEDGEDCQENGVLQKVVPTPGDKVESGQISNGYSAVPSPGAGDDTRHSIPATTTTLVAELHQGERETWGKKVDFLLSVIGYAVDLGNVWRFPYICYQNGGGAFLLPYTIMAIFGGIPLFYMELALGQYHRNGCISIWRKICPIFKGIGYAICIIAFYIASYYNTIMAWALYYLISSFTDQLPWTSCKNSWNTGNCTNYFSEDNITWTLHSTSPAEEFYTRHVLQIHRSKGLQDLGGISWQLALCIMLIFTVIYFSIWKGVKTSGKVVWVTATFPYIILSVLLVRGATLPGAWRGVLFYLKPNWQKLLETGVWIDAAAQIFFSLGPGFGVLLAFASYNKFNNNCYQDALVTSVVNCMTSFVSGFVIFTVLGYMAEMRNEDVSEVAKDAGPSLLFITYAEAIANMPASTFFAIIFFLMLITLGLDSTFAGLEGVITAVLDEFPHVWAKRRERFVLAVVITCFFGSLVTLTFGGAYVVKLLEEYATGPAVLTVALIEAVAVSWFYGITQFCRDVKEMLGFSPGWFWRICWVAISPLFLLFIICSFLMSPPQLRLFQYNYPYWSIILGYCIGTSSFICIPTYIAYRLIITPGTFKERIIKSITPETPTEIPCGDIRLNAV
Chain of 3',5'-cyclic-AMP phosphodiesterase 4D (Q08499 whole entry): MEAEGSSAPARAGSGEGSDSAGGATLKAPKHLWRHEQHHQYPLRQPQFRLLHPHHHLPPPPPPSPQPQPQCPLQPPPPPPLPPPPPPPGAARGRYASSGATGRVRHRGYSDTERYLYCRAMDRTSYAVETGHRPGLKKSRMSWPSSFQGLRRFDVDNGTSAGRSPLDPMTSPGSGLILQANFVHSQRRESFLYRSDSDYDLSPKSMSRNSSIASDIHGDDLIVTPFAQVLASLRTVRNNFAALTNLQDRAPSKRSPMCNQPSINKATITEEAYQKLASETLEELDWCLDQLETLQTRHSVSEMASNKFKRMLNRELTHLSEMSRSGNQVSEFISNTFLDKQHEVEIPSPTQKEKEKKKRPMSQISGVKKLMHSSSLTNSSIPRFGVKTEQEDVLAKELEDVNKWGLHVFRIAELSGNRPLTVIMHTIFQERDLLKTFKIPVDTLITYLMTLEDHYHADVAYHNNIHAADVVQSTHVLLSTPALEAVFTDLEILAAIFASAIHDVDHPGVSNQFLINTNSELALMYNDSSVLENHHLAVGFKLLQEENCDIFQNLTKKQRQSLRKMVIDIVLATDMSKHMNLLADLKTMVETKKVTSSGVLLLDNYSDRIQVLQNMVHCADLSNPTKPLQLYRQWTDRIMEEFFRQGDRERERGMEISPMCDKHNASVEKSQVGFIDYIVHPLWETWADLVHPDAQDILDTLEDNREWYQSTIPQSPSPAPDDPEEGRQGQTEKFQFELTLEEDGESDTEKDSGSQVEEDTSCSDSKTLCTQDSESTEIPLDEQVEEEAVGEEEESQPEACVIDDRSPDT
T3 sequence (Q01959 whole entry): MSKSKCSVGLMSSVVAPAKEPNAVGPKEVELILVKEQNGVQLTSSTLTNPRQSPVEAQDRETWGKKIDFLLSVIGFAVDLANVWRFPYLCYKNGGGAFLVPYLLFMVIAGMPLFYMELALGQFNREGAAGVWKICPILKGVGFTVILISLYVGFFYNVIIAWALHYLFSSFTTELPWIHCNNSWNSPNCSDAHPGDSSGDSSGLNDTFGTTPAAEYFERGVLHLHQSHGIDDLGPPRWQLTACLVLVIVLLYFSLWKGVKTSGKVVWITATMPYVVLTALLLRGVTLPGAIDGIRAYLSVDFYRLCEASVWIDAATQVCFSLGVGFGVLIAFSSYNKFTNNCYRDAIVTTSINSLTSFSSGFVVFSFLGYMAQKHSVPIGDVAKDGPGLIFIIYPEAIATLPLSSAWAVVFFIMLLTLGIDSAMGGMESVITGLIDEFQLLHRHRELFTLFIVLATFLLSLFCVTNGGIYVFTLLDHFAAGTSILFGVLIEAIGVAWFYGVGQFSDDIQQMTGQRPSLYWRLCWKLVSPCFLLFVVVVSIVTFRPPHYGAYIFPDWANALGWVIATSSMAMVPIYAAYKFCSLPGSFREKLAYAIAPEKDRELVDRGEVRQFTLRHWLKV

Row | SMILES | Ki [1] [nM] | Ki [2] [nM] | Ki [3] [nM] | IC50 [4] [nM] | IC50 [5] [nM] | IC50 [6] [nM] | IC50 [7] [nM]
1 | COc1ccc(C2=NN(CCCCCNCC[C@@H](Oc3cccc4ccccc34)c3cccs3)C(=O)[C@@H]3CC=CC[C@H]23)cc1OC | 127 | 3240 | 857 | 2100 | 45 | 1790 | 442
2 | NCC[C@H](Oc1cccc2ccccc12)c1cccs1 [(S)-NORDULOXETINE] | 18 | 2400 | > 10000 | 445 | > 100000 | > 10000 | 25.6
3 | COc1ccc(C2=NNC(=O)[C@@H]3CC=CC[C@H]23)cc1OC (relative stereo) | > 100000 | > 100000 | > 100000 | > 100000 | 213 | > 100000 | > 100000
4 | COc1ccc(C2=NN(CCCCCNCC[C@H](Oc3cccc4ccccc34)c3cccs3)C(=O)[C@@H]3CC=CC[C@H]23)cc1OC | 726 | > 100000 | 4600 | 2190 | 23 | 6630 | 404
5 | NCC[C@@H](Oc1cccc2ccccc12)c1cccs1 [R-NORDULOXETINE] | 8.3 | 953 | 3550 | 188 | > 100000 | > 10000 | 6.8
